A short description of data set [1]: Solubility assessment (turbidity absorbance at 325 nm). Format: physicochemical. The settings on record: stock 2 mg/ml diluted 1:1, ambient temperature (typically 25°C), n=1; for Solubility, Acetate buffer pH 4: 100 mM acetate buffer pH 4.0; for Solubility, Acetate buffer pH 5: 100 mM acetate buffer pH 5.0; for Solubility, Histidine buffer pH 6: 100 mM histidine buffer pH 6.0; for Solubility, Histidine buffer pH 7: 100 mM histidine buffer pH 7.0; for Solubility, Phosphate buffer pH 6: 100 mM phosphate buffer pH 6.0; for Solubility, Phosphate buffer pH 7: 100 mM phosphate buffer pH 7.0; for Solubility, Phosphate buffer pH 7.5: 100 mM phosphate buffer pH7.5. Put shortly:
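Read-out: turbidity as absorbance at 325 nm (280 nm also read), single samples, ambient temperature of typically 25°C. Samples were a 1:1 mix of 2 mg/ml stock (water, pH 2.5) with 100 mM acetate, histidine or phosphate buffers spanning pH 4.0–7.5. Cut-off: A325 ≤ 0.02 indicates ≥ 1 mg/ml.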

For data set [2], the target named is T1, human calcitonin receptor (hCTR2) (Homo sapiens, UniProt P30988).
T1 construct: expressed in transfected cells
T1 sequence (P30988 25-474): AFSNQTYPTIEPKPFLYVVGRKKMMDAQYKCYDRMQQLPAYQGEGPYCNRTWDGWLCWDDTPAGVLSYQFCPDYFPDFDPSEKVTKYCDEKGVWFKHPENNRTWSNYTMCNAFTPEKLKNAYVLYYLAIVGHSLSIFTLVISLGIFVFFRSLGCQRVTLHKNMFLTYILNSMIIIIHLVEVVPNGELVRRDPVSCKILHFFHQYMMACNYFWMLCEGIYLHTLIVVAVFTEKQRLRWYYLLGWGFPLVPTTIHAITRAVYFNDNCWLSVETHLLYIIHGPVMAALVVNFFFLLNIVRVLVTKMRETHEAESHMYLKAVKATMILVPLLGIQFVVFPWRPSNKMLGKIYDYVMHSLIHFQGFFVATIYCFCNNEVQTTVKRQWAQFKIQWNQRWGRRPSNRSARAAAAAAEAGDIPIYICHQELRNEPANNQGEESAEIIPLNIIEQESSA
As to the kind of experiment: hCTR2 assay: induction of cAMP (AlphaScreen cAMP Assay kit) in COS7 cells expressing hCTR2. Format: cell-based. In short, it runs like this: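 cAMP induction was measured by AlphaScreen in COS7 cells stably expressing hCTR2 without RAMPs, after 15 min at 37° C with increasing peptide concentrations, 100 µM IBMX and 0.1% casein (Tyrode, pH 7.4). A 4-parameter logistic fit gave EC50 and % efficacy versus pramlintide.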
In general terms: Bead proximity is the source of the signal in Alpha formats.

The mark [3] stands for this setting: cAMP induction in COS7 cells expressing hCTR2, average of a minimum of 3 determinations, read-out: hCTR2 EC50.

Read-outs that look alike come from different tables or passages of the source. Numbered stars: 1 amine (or outer) side, 2 acyl side, 3 side chain; on linkers, the order of the positions; unused ones are H or OH. Bridge positions count the residues as written; N and C are the ends. Square brackets hold non-standard residues; d marks the D form. Peptide text beside a SMILES is read from it. * marks the point of attachment. C20 diacid = O=C(O)CCCCCCCCCCCCCCCCCCC(=O)*; γGlu = O=C(O)[C@H](CCC(=O)[*:2])N[*:1]; NMeI = CC[C@H](C)[C@H](NC)C(=O)O; Sar = CNCC(=O)O

The EC50 is the concentration needed to bring the measured effect to its halfway point. With `CC[C@H](C)[C@@H](C(=O)N[C@@H](CC(C)C)C(=O)N[C@@H](CO)C(=O)N[C@@H](CO)C(=O)N[C@H](C(=O)N[C@@H](CC(N)=O)C(=O)N[C@H](C(=O)NCC(=O)N[C@@H](CO)C(=O)N[C@@H](CC(N)=O)C(=O)N[C@H](C(=O)N1CCC[C@H]1C(N)=O)[C@@H](C)O)C(C)C)[C@@H](C)O)N(C)C(=O)[C@H](C)NC(=O)CN(C)C(=O)[C@H](Cc1ccccc1)NC(=O)[C@H](CC(N)=O)NC(=O)[C@H](CC(N)=O)NC(=O)[C@H](CO)NC(=O)[C@H](CO)NC(=O)[C@H](Cc1c[nH]cn1)NC(=O)[C@H](Cc1c[nH]cn1)NC(=O)[C@H](CC(C)C)NC(=O)[C@H](Cc1ccccc1)NC(=O)[C@H](CCC(=O)O)NC(=O)[C@H](C)NC(=O)[C@H](CC(C)C)NC(=O)[C@H](CCCNC(=N)N)NC(=O)[C@H](CCC(N)=O)NC(=O)[C@@H](NC(=O)[C@H](C)NC(=O)[C@@H]1CSSC[C@H](NC(=O)[C@H](CCCCN)NC(=O)CC[C@H](NC(=O)CCCCCCCCCCCCCCCCCCC(=O)O)C(=O)O)C(=O)N[C@@H](CC(N)=O)C(=O)N[C@@H]([C@@H](C)O)C(=O)N[C@@H](C)C(=O)N[C@@H]([C@@H](C)O)C(=O)N1)[C@@H](C)O` [Compound 19, [19CD]-isoGlu-KC()NTATC()ATQRLAEFLHHSSNNF-Gly(Me)-A-Ile(Me)-LSSTNVGSNTP-NH2] ({C20 diacid-γGlu}-KCNTATCATQRLAEFLHHSSNNF[Sar]A[NMeI]LSSTNVGSNTP-NH2; disulfide 2-7), in data set [1], the “Solubility, Acetate buffer pH 4” value is reported as “SS (SS indicates solubility ≥ 1mg/ml)”; the “Solubility, Acetate buffer pH 5” value is listed as “SS (SS indicates solubility ≥ 1mg/ml)”; the “Solubility, Histidine buffer pH 6” value is reported as “SS (SS indicates solubility ≥ 1mg/ml)”; the “Solubility, Histidine buffer pH 7” value was “SS (SS indicates solubility ≥ 1mg/ml)”. Besides, in data set [1], the “Solubility, Phosphate buffer pH 6” value is “SS (SS indicates solubility ≥ 1mg/ml)”; the “Solubility, Phosphate buffer pH 7” value is recorded as “SS (SS indicates solubility ≥ 1mg/ml)”; the “Solubility, Phosphate buffer pH 7.5” value is given as “SS (SS indicates solubility ≥ 1mg/ml)”. For the same compound, in data set [2], the EC50 turned out to be 0.071 nM.

Turning to `CC[C@H](C)[C@@H](C(=O)N[C@@H](CC(C)C)C(=O)N[C@@H](CO)C(=O)N[C@@H](CO)C(=O)N[C@H](C(=O)N[C@@H](CC(N)=O)C(=O)N[C@H](C(=O)NCC(=O)N[C@@H](CO)C(=O)N[C@@H](CC(N)=O)C(=O)N[C@H](C(=O)N1CCC[C@H]1C(N)=O)[C@@H](C)O)C(C)C)[C@@H](C)O)N(C)C(=O)CN(C)C(=O)[C@H](Cc1ccccc1)NC(=O)[C@H](CC(N)=O)NC(=O)[C@H](CC(N)=O)NC(=O)[C@H](CO)NC(=O)[C@H](CO)NC(=O)[C@H](Cc1c[nH]cn1)NC(=O)[C@H](Cc1c[nH]cn1)NC(=O)[C@H](CC(C)C)NC(=O)[C@H](Cc1ccccc1)NC(=O)[C@H](CCC(=O)O)NC(=O)[C@H](C)NC(=O)[C@H](CC(C)C)NC(=O)[C@H](CCCNC(=N)N)NC(=O)[C@H](CCC(N)=O)NC(=O)[C@@H](NC(=O)[C@H](C)NC(=O)[C@@H]1CSSC[C@H](NC(=O)[C@H](CCCCN)NC(=O)CC[C@H](NC(=O)CCCCCCCCCCCCCCCCCCC(=O)O)C(=O)O)C(=O)N[C@@H](CC(N)=O)C(=O)N[C@@H]([C@@H](C)O)C(=O)N[C@@H](C)C(=O)N[C@@H]([C@@H](C)O)C(=O)N1)[C@@H](C)O` [Compound 20, [19CD]-isoGlu-KC()NTATC()ATQRLAEFLHHSSNNF-Gly(Me)-Ile(Me)-LSSTNVGSNTP-NH2] ({C20 diacid-γGlu}-KCNTATCATQRLAEFLHHSSNNF[Sar][NMeI]LSSTNVGSNTP-NH2; disulfide 2-7), in data set [1], the “Solubility, Acetate buffer pH 4” value was “SS (SS indicates solubility ≥ 1mg/ml)”; the “Solubility, Acetate buffer pH 5” value is “SS (SS indicates solubility ≥ 1mg/ml)”; the “Solubility, Histidine buffer pH 6” value is listed as “SS (SS indicates solubility ≥ 1mg/ml)”; the “Solubility, Histidine buffer pH 7” value is “SS (SS indicates solubility ≥ 1mg/ml)”. Moreover, in data set [1], the “Solubility, Phosphate buffer pH 6” value is on record as “SS (SS indicates solubility ≥ 1mg/ml)”; the “Solubility, Phosphate buffer pH 7” value is given as “SS (SS indicates solubility ≥ 1mg/ml)”; the “Solubility, Phosphate buffer pH 7.5” value is “SS (SS indicates solubility ≥ 1mg/ml)”. Moreover, the EC50 in data set [2] (setting [3]) was 0.094 nM.

On to `CC[C@H](C)[C@@H](C(=O)N[C@@H](CC(C)C)C(=O)N[C@@H](CO)C(=O)N[C@@H](CO)C(=O)N[C@H](C(=O)N[C@@H](CC(N)=O)C(=O)N[C@H](C(=O)NCC(=O)N[C@@H](CO)C(=O)N[C@@H](CC(N)=O)C(=O)N[C@H](C(=O)N1CCC[C@H]1C(N)=O)[C@@H](C)O)C(C)C)[C@@H](C)O)N(C)C(=O)[C@H](C)NC(=O)CN(C)C(=O)[C@H](Cc1ccccc1)NC(=O)[C@H](CC(N)=O)NC(=O)[C@H](CC(N)=O)NC(=O)[C@H](CO)NC(=O)[C@H](CO)NC(=O)[C@H](Cc1c[nH]cn1)NC(=O)[C@H](CCCNC(=N)N)NC(=O)[C@H](CC(C)C)NC(=O)[C@H](Cc1ccccc1)NC(=O)[C@H](CCC(=O)O)NC(=O)[C@H](C)NC(=O)[C@H](CC(C)C)NC(=O)[C@H](CCCNC(=N)N)NC(=O)[C@H](CCC(N)=O)NC(=O)[C@@H](NC(=O)[C@H](C)NC(=O)[C@@H]1CSSC[C@H](NC(=O)[C@H](CCCNC(=N)N)NC(=O)CC[C@H](NC(=O)CCCCCCCCCCCCCCCCCCC(=O)O)C(=O)O)C(=O)N[C@@H](CC(N)=O)C(=O)N[C@@H]([C@@H](C)O)C(=O)N[C@@H](C)C(=O)N[C@@H]([C@@H](C)O)C(=O)N1)[C@@H](C)O` [Compound 21, [19CD]-isoGlu-RC()NTATC()ATQRLAEFLRHSSNNF-Gly(Me)-A-Ile(Me)-LSSTNVGSNTP-NH2] ({C20 diacid-γGlu}-RCNTATCATQRLAEFLRHSSNNF[Sar]A[NMeI]LSSTNVGSNTP-NH2; disulfide 2-7), for which, in data set [1], the “Solubility, Acetate buffer pH 4” value was “SS (SS indicates solubility ≥ 1mg/ml)”; the “Solubility, Acetate buffer pH 5” value is recorded as “SS (SS indicates solubility ≥ 1mg/ml)”; the “Solubility, Histidine buffer pH 6” value is listed as “SS (SS indicates solubility ≥ 1mg/ml)”; the “Solubility, Histidine buffer pH 7” value is listed as “SS (SS indicates solubility ≥ 1mg/ml)”. Moreover, in data set [1], the “Solubility, Phosphate buffer pH 6” value is “SS (SS indicates solubility ≥ 1mg/ml)”; the “Solubility, Phosphate buffer pH 7” value is recorded as “SS (SS indicates solubility ≥ 1mg/ml)”; the “Solubility, Phosphate buffer pH 7.5” value was “SS (SS indicates solubility ≥ 1mg/ml)”. The EC50 in data set [2] came out at 0.38 nM.

For `CC[C@H](C)[C@@H](C(=O)N[C@@H](CC(C)C)C(=O)N[C@@H](CO)C(=O)N[C@@H](CO)C(=O)N[C@H](C(=O)N[C@@H](CC(N)=O)C(=O)N[C@H](C(=O)NCC(=O)N[C@@H](CO)C(=O)N[C@@H](CC(N)=O)C(=O)N[C@H](C(=O)N1CCC[C@H]1C(N)=O)[C@@H](C)O)C(C)C)[C@@H](C)O)N(C)C(=O)CN(C)C(=O)[C@H](Cc1ccccc1)NC(=O)[C@H](CC(N)=O)NC(=O)[C@H](CC(N)=O)NC(=O)[C@H](CO)NC(=O)[C@H](CO)NC(=O)[C@H](Cc1c[nH]cn1)NC(=O)[C@H](CCCNC(=N)N)NC(=O)[C@H](CC(C)C)NC(=O)[C@H](Cc1ccccc1)NC(=O)[C@H](CCC(=O)O)NC(=O)[C@H](C)NC(=O)[C@H](CC(C)C)NC(=O)[C@H](CCCNC(=N)N)NC(=O)[C@H](CCC(N)=O)NC(=O)[C@@H](NC(=O)[C@H](C)NC(=O)[C@@H]1CSSC[C@H](NC(=O)[C@H](CCCNC(=N)N)NC(=O)CC[C@H](NC(=O)CCCCCCCCCCCCCCCCCCC(=O)O)C(=O)O)C(=O)N[C@@H](CC(N)=O)C(=O)N[C@@H]([C@@H](C)O)C(=O)N[C@@H](C)C(=O)N[C@@H]([C@@H](C)O)C(=O)N1)[C@@H](C)O` [Compound 22, [19CD]-isoGlu-RC()NTATC()ATQRLAEFLRHSSNNF-Gly(Me)-Ile(Me)-LSSTNVGSNTP-NH2] ({C20 diacid-γGlu}-RCNTATCATQRLAEFLRHSSNNF[Sar][NMeI]LSSTNVGSNTP-NH2; disulfide 2-7), in data set [1], the “Solubility, Acetate buffer pH 4” value was “SS (SS indicates solubility ≥ 1mg/ml)”; the “Solubility, Acetate buffer pH 5” value is given as “SS (SS indicates solubility ≥ 1mg/ml)”; the “Solubility, Histidine buffer pH 6” value was “SS (SS indicates solubility ≥ 1mg/ml)”; the “Solubility, Histidine buffer pH 7” value is recorded as “SS (SS indicates solubility ≥ 1mg/ml)”. Moreover, in data set [1], the “Solubility, Phosphate buffer pH 6” value was “SS (SS indicates solubility ≥ 1mg/ml)”; the “Solubility, Phosphate buffer pH 7” value is reported as “SS (SS indicates solubility ≥ 1mg/ml)”; the “Solubility, Phosphate buffer pH 7.5” value is on record as “SS (SS indicates solubility ≥ 1mg/ml)”. Besides, in data set [2] (setting [3]), the EC50 was determined as 0.31 nM.
